# Like-named read-outs stand apart in the source and are kept apart here.
# What was measured:
# [1] = Accelerated oxidative degradation of benzylamine (CO2/O2, 55° C., 13C-NMR); format: physicochemical; conditions: 1 mol/L, CO2 (1 bar) and O2 (9 bar), 10 days, relative 13C-NMR peak areas
# Protocol: A solution of 10 mL of 1 mol/L BZA was placed in a Fischer-Porter vessel. […] Based on relative peak areas approximately 41% of the BZA had been converted to imine.
# [2] = conjugate acid pKa, cited from earlier work
# [3] = Accelerated oxidative degradation of diethanolamine solutions with sacrificial amine (CO2/O2, 55° C., 13C-NMR); conditions: 5.9 mol/L DEA and 0.1 mol/L additive, CO2 (1 bar), O2 (9 bar), 115 hours
# Protocol: The effect of 3-aminomethylpyridine (3-AMPy) and benzylamine (BZA) on the degradation of DEA was investigated using accelerated degradation conditions designed to simulate longer-term degradation in a gas capture process. DEA solutions were thus prepared as follows: i) 6 mol/L DEA; ii) 5.9 mol/L DEA and 0.1 mol/L BZA; and iii) 5.9 mol/L DEA and 0.1 mol/L 3-AMPy. Each solution (10 ml) was placed in a Fischer-Porter vessel. The vessels were sealed and the remaining headspace of the vessels was filled with CO2 (1 bar) and O2 (9 bar). The liquid phase in the vessels was stirred via magnetic stirring bars and heated to 55° C. by immersion in a water bath for 115 hours.
# Samples were then taken and analysed by ^13C-NMR spectroscopy (Bruker Avance 400).
# [4] = Extraction of imine dimer by solid absorption on Amberlite XAD-2; format: physicochemical; conditions: Amberlite XAD-2, stirred 2 hours, 13C NMR
# Protocol: (§1) A sample of the aqueous absorbent, which had initially contained 3 mol/L 3-AMPy and 3 mol/L 2-amino-2-methyl-1-propanol (AMP), was taken after 5000 hours (c.a. 208 days) of operation in the pilot plant campaign described in Example 2. Despite the improved stability of the solution as a result of the AMP, imine dimer degradation product was present in significant quantities (c.a. 0.35 mol/litre) by this time.
# Amberlite XAD-2, a hydrophobic crosslinked polystyrene copolymer resin, was washed 3 times in deionized water followed by washing 3 times in dichloromethane (DCM). The cleaned beads were mixed with the absorbent sample that had been exposed to 5000 hours of flue gas. The mixture was stirred for 2 hours to allow the hydrophobic components to adhere to the polymer resin. The mixture was filtered to remove the water soluble portion of the degraded amine absorbent. The beads were washed with water and this water added to the filtrate. The beads were then washed with 3 portions of DCM, and the collected DCM was partially evaporated.
# Very little amine was extracted into the beads and carried over to the DCM wash, as evidenced by the lack of peaks near 42 ppm (these peaks are present in the sample and aqueous filtrate spectra). […]
# [5] = Extraction of imine dimer into organic solvents (liquid-liquid partition, GC-MS, 13C NMR); format: physicochemical
# Protocol: as §1, with “3800” for “5000”, “158” for “208”, “AMP, it is evident from FIG. 3 that” for “AMP,”, “0.2” for “0.35”
# Equal volumes of the sample and dichloromethane were vigorously shaken in a separating funnel and allowed to undergo phase separation. The two phases were then collected and separately analysed by GC-MS. FIGS. 4 and 5 depict gas chromatographs of the organic and aqueous phases respectively, with the peaks identified by mass spectrometry via comparison against libraries of reference spectra.
# Samples of the same aqueous absorbent were also extracted with equal volumes of toluene or ethyl acetate. The organic phases after extraction with dichloromethane, toluene and ethyl acetate were analysed by ^13C NMR.
# [6] = Viscosity of absorbent (Anton Parr LOVIS 2000 ME, 40° C.); format: physicochemical; conditions: imine added to fresh absorbent
# Protocol: Another sample of the aqueous absorbent, which had initially contained 3 mol/L 3-AMPy and 3 mol/L 2-amino-2-methyl-1-propanol (AMP) and was taken after c.a. 5000 hours (c.a. 208 days) of operation in the pilot plant campaign described in Example 2, was extracted with dichloromethane as described in Example 5. As a result of the extraction, the viscosity of the sample was reduced from 9.9 mPa·s to 6.0 mPa·s (measured at 40° C. using an Anton Parr LOVIS 2000 ME instrument). By comparison, the viscosity of the fresh, CO2 free absorbent was 4.7 mPa·s. The effect of the viscosity reduction is to improve the performance of the absorbent in the plant through better flow properties and reduced mass transfer resistance.
# The synthesised imine (structure confirmed by IR spectroscopy) was added to fresh absorbent and the impact on viscosity measured (measured at 40° C. using an Anton Parr LOVIS 2000 ME).
# [7] = Hydrolysis of imine dimer under acidic aqueous conditions; format: physicochemical; conditions: acetic acid and water with DCM solution, room temperature, 24 hours
# Description: The imine of Formula (II) is found to be unstable in acidic aqueous conditions. For the case where the degradation product is extracted from the liquid absorbent into an organic solvent, hydrolysis may thus be achieved by contacting the separated organic phase with an acidified aqueous phase, for example containing a catalytic amount of acetic acid. After suitable mixing and time for hydrolysis, the two phases are separated by conventional liquid-liquid separation techniques, with the regenerated amine of Formula (I) partitioned into the aqueous phase and the less polar aldehyde of Formula (III) remaining in the organic phase. The aqueous phase, now containing a first portion of regenerated amine of Formula (I), may then be recycled to the gas absorption process. It will be appreciated that a theoretical maximum of 50 mol % of the degraded amine may be recovered by this process step, since each molecule of imine incorporates two amine molecules.
# A sample of the aqueous absorbent, which had initially contained 3 mol/L 3-AMPy and 3 mol/L 2-amino-2-methyl-1-propanol (AMP) and was taken after c.a. 3800 hours (c.a. 158 days) of operation in the pilot plant campaign described in Example 2. The sample was shaken with an equal volume of dichloromethane (DCM) in a separating funnel for 1 minute. The phases were then allowed to separate and each phase was collected separately. […]
Compound,pKa at 25° C. ([2]; table in description),pKa at 25° C. ([2]; table of Example 4),other results
"NCc1ccccc1 [BZA, benzylamine]",–,–,amine converted to imine [1]: approximately 41%
CC(N)CO (stereo not drawn) [2-amino-1-propanol],9.5,9.5,–
OCC1CCNCC1 [4-piperidinylmethanol],–,10.6,–
NCCS(=O)(=O)[O-].[K+] [potassium taurate],9.1,9.1,–
NCc1cccnc1 [3-(aminomethyl)pyridine],–,–,DEA degradation (13C-NMR peak at 67 ppm) in presence of sacrificial amine [3]: this degradation has not occurred
NCC(=O)[O-].[Na+] [sodium glycinate],9.6,9.6,–
C(=NCc1cccnc1)c1cccnc1 [imine dimer],–,–,"extraction by hydrophobic resin beads [4]: majority of the imine was extracted; extraction into organic phase ([5]; dichloromethane, toluene or ethyl acetate, equal volumes, 13C NMR): successful and selective extraction; phase distribution after extraction ([5]; equal volumes of used absorbent sample and dichloromethane, GC-MS): almost exclusively present in the organic phase; impact on viscosity of fresh absorbent [6]: increased with the concentration of synthetic imine added; stability under acidic aqueous conditions [7]: unstable"
OCC1CCCCN1 (stereo not drawn) [2-piperidinylmethanol],–,10.1,–
